Experimental data reported in PubChem BioAssay (NCI).
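Cultured in 96-well plates, cells were exposed to test compound for 48 hours across five concentrations. Abbreviation: GI50, concentration required for 50% inhibition of growth. TGI: total growth inhibition.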

Experiments:
Assay in all cases: growth of human tumour cells (NCI), 48 h
CAKI-1 renal = test system: CAKI-1 renal
SW-620 colon = test system: SW-620 colon
LOX IMVI melanoma = test system: LOX IMVI melanoma
A549 NSCLC = test system: A549 NSCLC
SF-295 CNS = test system: SF-295 CNS
HOP-62 NSCLC = test system: HOP-62 NSCLC
SF-268 CNS = test system: SF-268 CNS
OVCAR-8 ovarian = test system: OVCAR-8 ovarian
TK-10 renal = test system: TK-10 renal
MALME-3M melanoma = test system: MALME-3M melanoma

| SMILES | GI50 (CAKI-1 renal) [µM] | TGI (CAKI-1 renal) [µM] | GI50 (SW-620 colon) [µM] | TGI (SW-620 colon) [µM] | GI50 (LOX IMVI melanoma) [µM] | TGI (LOX IMVI melanoma) [µM] | GI50 (A549 NSCLC) [µM] | TGI (A549 NSCLC) [µM] | GI50 (SF-295 CNS) [µM] | TGI (SF-295 CNS) [µM] | GI50 (HOP-62 NSCLC) [µM] | TGI (HOP-62 NSCLC) [µM] | GI50 (SF-268 CNS) [µM] | TGI (SF-268 CNS) [µM] | GI50 (OVCAR-8 ovarian) [µM] | TGI (OVCAR-8 ovarian) [µM] | TGI (TK-10 renal) [µM] | TGI (MALME-3M melanoma) [µM] | GI50 (TK-10 renal) [µM] | GI50 (MALME-3M melanoma) [µM] |
| --- | --- | --- | --- | --- | --- | --- | --- | --- | --- | --- | --- | --- | --- | --- | --- | --- | --- | --- | --- | --- |
| O=[N+]([O-])c1cccc([I+]c2ccccc2)c1 | 3.42 | 49 | 6.42 | 26.7 | 6.21 | 20.1 | 3.46 | 24.1 | 10.9 | 25.6 | 5.19 | 18.8 | 7.3 | 21.2 | 4.37 | 17.6 | – | – | – | – |
| O=c1[nH]c(-c2ccc([N+](=O)[O-])cc2)nc2ccc(Cl)cc12 | – | – | – | > 100 | – | – | – | > 100 | – | > 100 | – | – | – | > 100 | – | > 100 | > 100 | > 100 | – | – |
| COc1cc(/C=C2\CC3C4CCC5=CC(=O)CC[C@]5(C)C4CC[C@]3(C)C2=O)ccc1OCCN1CCCCC1 (stereo partly drawn) | 2.29 | 5.89 | 2.93 | 11.7 | 1.42 | 3.3 | 11 | 41.1 | 2.02 | 4.24 | 2.36 | 6.66 | 4.72 | 16.4 | 15.9 | 62.5 | 6.96 | – | 2.45 | – |
| C1C[S][Ge]2([S]CCS1)[S]CCSCC[S]2 | > 100 | > 100 | – | – | – | – | – | – | – | – | > 100 | > 100 | > 100 | > 100 | – | – | – | > 100 | – | > 100 |
| CSc1nc(SC)c2c(C)cn(C3OC(C)C(O)C(O)C3O)c2n1 (stereo not drawn) | – | – | – | > 100 | – | > 100 | – | > 100 | – | > 100 | – | > 100 | – | > 100 | – | > 100 | > 100 | > 100 | – | – |
| Cc1cc2c(C)nn(Cc3ccccc3Cl)c2c(C#N)c1C | – | – | – | > 100 | – | > 100 | – | > 100 | – | > 100 | – | > 100 | – | > 100 | – | > 100 | > 100 | > 100 | – | – |
| O=C(CC(=O)N1N=C(c2ccccc2)C(N=Nc2ccccc2Cl)C1=O)Nc1ccccc1Cl (stereo not drawn) | – | > 100 | – | > 100 | – | > 100 | – | > 100 | – | 65.3 | – | > 100 | – | > 100 | – | > 100 | 40.6 | – | – | – |
| ClCc1ccc(-c2ccc(Cn3cnc4c(Cl)ncnc43)cc2)cc1 | 1.47 | 2.87 | 2.43 | 6.63 | 1.33 | 3.01 | 4.31 | 17.4 | 1.92 | 4.89 | 1.84 | 3.63 | 1.13 | 3.51 | 2.8 | 8.95 | 3.58 | – | 1.65 | – |
| O=Cc1cn(S(=O)(=O)c2ccccc2)c2ccccc12 | – | – | – | > 100 | – | 43.8 | – | > 100 | – | > 100 | – | > 100 | – | > 100 | – | > 100 | > 100 | > 100 | – | – |
| C/C(CC(=O)Nc1ccc([N+](=O)[O-])cc1)=N\Nc1ccc([N+](=O)[O-])cc1[N+](=O)[O-] | – | – | – | > 100 | – | > 100 | – | > 100 | – | > 100 | – | > 100 | – | > 100 | – | > 100 | > 100 | > 100 | – | – |
| CCCCCCn1c2c(c3c(O)cccc31)C(=O)c1ccccc1-2 | 26.9 | 63.8 | 18.2 | 34.8 | 18.1 | 33.8 | 16.4 | 34.5 | 21 | 44.8 | 18.4 | 33.8 | 20.3 | 40.5 | 17.4 | 36.7 | 24.2 | – | 11 | – |
| CN1c2ccccc2S(=O)(=O)n2c(COc3ccccc3)nnc21 | – | > 100 | – | > 100 | – | > 100 | – | > 100 | – | > 100 | – | > 100 | – | > 100 | – | > 100 | > 100 | – | – | – |
| C=C1CCC2(C(C)=O)COC1(C)O2 (stereo not drawn) | – | – | – | > 100 | – | > 100 | – | > 100 | – | > 100 | – | > 100 | – | – | – | > 100 | > 100 | > 100 | – | – |
| CCOC(=O)Cn1c(=O)[nH]c(=O)c2[nH]cnc21 | – | – | – | > 100 | – | > 100 | – | > 100 | – | – | – | > 100 | – | > 100 | – | > 100 | > 100 | > 100 | – | – |
| O=C(CC1(O)C(=O)Nc2ccc([N+](=O)[O-])cc21)c1ccc(Br)cc1 (stereo not drawn) | – | – | – | – | – | > 100 | – | > 100 | – | > 100 | – | > 100 | – | > 100 | – | > 100 | 69.5 | > 100 | – | – |
| COc1cc(OC)c(/C=C/C(=O)c2c(O)cc(OC)c(C3CCN(C)CC3)c2OC)c(OC)c1 | 1.51 | 2.93 | 1.45 | 3.02 | – | – | 1.57 | 2.97 | 1.56 | 2.98 | 1.73 | 3.16 | 1.63 | 3.29 | – | – | – | – | – | – |
| Cn1c2c(c3ccccc31)CCN(CCCN1CCN(c3ccccc3)CC1)C2=O | – | 30.8 | – | 55.7 | – | 60 | – | 61 | – | 37.8 | – | – | – | > 100 | – | 59.6 | 35.4 | – | – | – |
